According to patent US20220378739A1, “NATURAL KILLER CELL IMMUNOTHERAPY FOR THE TREATMENT OF GLIOBLASTOMA AND OTHER CANCERS” (BOARD OF REGENTS, THE UNIVERSITY OF TEXAS SYSTEM, priority 2019, published 2022):

Experiments:
K562 targets = format: cell-based, human; conditions: NK cells alone, inhibitor 10 μM, 48 hours
Procedure: NK cells were co-cultured for 5 hours with K562 or GSCs target cells at an optimized effector:target ratio of 5:1 together with CD107a PE-CF594 (BD Biosciences), monensin (BD GolgiStopTM) and BFA (Brefeldin A, Sigma Aldrich). NK cells were incubated without targets as the negative control and stimulated with PMA (50 ng/mL) and ionomycin ([…], Sigma Aldrich) as positive control. Cells were collected, washed and stained with surface antibodies (mentioned above), fixed/permeabilized (BD Biosciences) and stained with IFN-7 v450 and TNF-α Alexa700 (BD Biosciences) antibodies.
NK cell cytotoxicity was assessed using chromium (siCr) release assay. Briefly, K562 or GSCs target cells were labeled with siCr (PerkinElmer Life Sciences, Boston, Mass.) at 50 μCi/5×10^5 cells for 2 hours. ^51Cr-labeled K562/GSC targets (5×105) were incubated for 4 h with serially diluted magnetically isolated NK cells in triplicate. Supernatants were then harvested and analysed for ^51Cr content.
For studies of NK cell suppression by GSCs and human astrocytes, magnetically selected healthy NK cells were cultured in Serum-free Stem Cell Growth Medium (SCGM; CellGro/CellGenix) supplemented with 5% glutamine, 5 μM HEPES (both from GIBCO/Invitrogen), and 10% FCS (Biosera) in 96-well flat-bottomed plates (Nunc) at 100,000/100D11. NK cells were co-cultured either alone (positive control) or with GSCs or astrocytes at a 1:1 ratio for 48 hours at 37° C. before performing functional assays to assess NK cells cytotoxicity.
GSCs and purified NK cells were co-cultured for 48 hours in the presence of anti-TGFβ 123 (5 μg/ml) (R&D), HLA-ABC blocking antibody (clone W 6/32, Biolegend), CD44 blocking antibody (clone IM7, Biolegend), ILT-2 (CD85J) blocking antibody (clone HP-F1, ThermoFisher), CD155 blocking antibody (clone D171, GenTex), CD112 blocking antibody (clone TX31, Biolegend), 10 μM LY2109761, 10 μM galunisertib (LY2157299), 10 μM Cilengitide (Cayman Chemical) or 1 μM MMP-2/MMP-9 inhibitor I (Millipore). Cytotoxicity assays were then performed as described above.

[1] = test system: TiNKs / HC-NK cells rendered dysfunctional by GSCs; assay: Reversal of established NK cell dysfunction (TiNKs ex vivo; NK cell recovery assays); format: cell-based, human
Procedure: FIGS. 11A-11G. […] (FIG. 11A) NK cells were incubated with or without galunisertinib (10 μM) or LY2109761 (10 μM) for 48 hours. Representative zebra plots show their CD107a, IFN-γ, and TNF-α response to K562 targets. NK cells were gated on CD3-CD56+ lymphocytes. Inset numbers are the percentages of CD107a-, IFN-γ- or TNF-α-positive NK cells within the gated NK cell population. (FIGS. 11B-11C) NK cells were cultured either alone or with GSCs in a 1:1 ratio with or without LY2109761 or galunisertib for 48 hrs. Representative zebra plots and summary box plots show their CD107, IFN-γ, and TNF-α expression response to K562 (FIG. 11B) or GSC (FIG. 11C) targets. Effector:target ratio is 5:1. NK cells were defined as CD3-CD56+ lymphocytes. Inset numbers are the percentages of CD107a-, IFN-γ- or TNF-α-positive NK cells (n=7, n=4 respectively). (FIG. 11D) TiNK cells were cultured for 24 hours in media with 5 ng/ml IL-15 with or without galunisertib. Representative zebra plots and bar graph summary show their CD107, IFN-γ, and TNF-α response to K562 targets. Effector:target ratio is 5:1. NK cells were gated on CD3-CD56+ lymphocytes. Inset numbers are the percentages of CD107a-, IFN-γ- or TNF-α-positive NK cells within the indicated regions. (n=3). (FIG. 11E) TiNK cells and paired PB-NK cells from GBM patients were cultured in the presence or absence of galunisertib for 12 hours. The bar graphs summarize the mean fluorescence intensity (MFI) for their p-Smad⅔ expression. Paired t test was performed to determine statistical significance (n=3). (FIG. 11F) Specific lysis (^51Cr release assay) of K562 targets by NK cells. After 48 hours of culture alone (blue lines) or with GSCs, healthy donor NK cells were either left with GSCs (red lines), or purified and re-suspended in media for another 48 hours (black lines). NK cells were then collected and used for ^51Cr release assay (n=4). (FIG. 11G) Specific lysis (^51Cr release assay) of K562 targets by NK cells. After 48 hours of culture alone (blue lines) or with GSCs, healthy donor NK cells were either left with GSCs ([…]) or purified and cultured in SCGM media plus 5 ng/ml IL-15 with (black lines) or without galunisertib (10 μM) (gray lines) for […]. At the end of the culture period, their cytotoxicity was tested against k562 targets by ^51Cr release assay (n=4).
NK cells were cultured either with GSCs in a 1:1 ratio or alone for 48 hours. After 48 hours of co-incubation, NK cells were then either purified again by bead selection and resuspended in SCGM media or remained in culture with GSCs for an additional 48 hours and then used for ^51Cr release assay. In a second assay, after reselection, NK cells were cultured for another 5 days in SCGM in the presence of 5 ng/ml IL-15 with or without 10 μM galunisertib before use for ^51Cr release assay.

Cc1cccc(-c2nn3c(c2-c2ccnc4ccc(C(N)=O)cc24)CCC3)n1 [galunisertib]
NK cell function (CD107a, IFN-γ, TNF-α response to K562), NK cells without GSCs (K562 targets): neither inhibitor affected NK cell function
reversal of GSC-induced dysfunction of HC-NK cells ([1]; NK cells purified after 48 hours with GSCs, then IL-15 5 ng/ml with or without galunisertib 10 μM): did not reverse the dysfunction of HC-NK cells induced by GSCs
restoration of TiNK function (specific lysis of K562; CD107, IFN-γ, TNF-α) ([1]; TiNKs cultured 24 hours, galunisertib 10 μM or IL-15 5 ng/ml): failed to inactivate the TGF-β1 Smad⅔ signaling pathway and restore NK cell dysfunction
TGF-β1 Smad⅔ signaling in TiNKs ([1]; TiNKs from GBM patients cultured ex vivo, galunisertib 12 hours or IL-15): failed to inactivate the TGF-β1 Smad⅔ signaling pathway
